Measurements taken from patent EP0676203A1, “Pharmaceutical compositions of antiglucocorticoid compounds for treating or preventing symptoms of spontaneous or narcotic-induced withdrawal” (ROUSSEL UCLAF, priority 1994, dated 1995).
“And” between values parts separate entries of the source, which are not always exact repeats. Identical values can stand only once.

Experiments:
[1] = system: souris dépendantes à la morphine; test: Naloxone-precipitated withdrawal syndrome (jumping) in morphine-treated mice, repeated 4-day oral treatment; assay type: in vivo
Excerpt: (§1) Les expériences ont été réalisées chez des souris mâles Swiss normales ou surrénalectomisées (Charles River, France) d'un poids corporel compris entre 20 et 25 g. Durant les essais, les animaux ont eu libre accès à la nourriture et à l'eau de boisson. Le nombre d'animaux par groupe est de 10 à 13 souris.
(§2) Les antiglucocorticoïdes : • AG1 (17β-hydroxy 11β-(4-diméthylaminophényl) 17α-(prop-1-ynyl) estra 4,9-dièn-3-one), • AG2 (17β-hydroxy 10β-[(4-méthylphényl) méthyl] 17α-(prop-1-ynyl) estra 4,9-dièn-3-one), • AG3 (γ-lactone de l'acide 17β-hydroxy 11β-(4-diméthylaminophényl) 21-méthylène 3-oxo 19-nor 17α-(pregna 4,9-dièn-21-carboxylique) • AG4 10β-benzyl 17β-hydroxy 17α-(prop-1-ynyl) estra 4,9(11)-dièn-3-one • AG5 11β-[4-(diméthylamino) phényl] 17α-hydroxy 17β-(3-hydroxypropyl) 13α-méthyl gona-4,9-dièn-3-one (onapristone) • AG6 11β-[4-(diméthylamino) phényl] 17β-hydroxy 17α-(3-hydroxy-1-propényl) estra-4,9-dièn-3-one (lilopristone) • AG7 17α-acétoxy 11β-[4-(diméthylamino) phényl] 19-nor pregna 4,9-dièn-3,20-dione • et l'antiprogestérone AP1 (17R 11β-[4-(méthylthio) phényl] spiro (estra-4,9-dièn-17,2'(5'H) furan) 3-one décrit dans WO 87/05908 ex. 3) ont été mis en suspension dans de la méthyl cellusose à 0,5 % et administrés par voie orale (p.o). La morphine a été mise en solution dans du sérum physiologique et administrée par voie sous-cutanée (s.c). Enfin, le chlorhydrate de naloxone a été solubilisé dans de l'eau distillée et injecté par voie intra-péritonéale.
Tous les produits ont été administrées à l'animal sous un volume de 25 ml/kg.
Le premier jour (J1), les animaux ont reçu 5 injections sous-cutanées avec des doses croissantes de morphine réparties dans la matinée et sur le début de l'après midi, à une heure d'intervalle. Les 3 jours suivants (J2, J3, J4), ces mêmes animaux ont été traités le matin par deux administrations de la dose maximale utilisée au jour 1.
Les antiglucocorticoïdes AG1, AG2, AG3, AG4 et AG5 ont été administrées à la dose de 100 mg/kg par voie orale sous forme d'un traitement quotidient effectué 2 heures avant l'administration de morphine et ceci durant 4 jours.
La technique utilisée s'inspire de celle décrite par Way et al. J. Pharmacol. Exp. Ther. (1969), 167 : 1-8 et Huidobro et Maggiolo Acta Physiol. Pharmacol. Latinoam. (1961), 11 : 201-9. Ainsi, l'administration réitérée d'un morphinique induit un phénomène de dépendance physique qui peut être facilement mis en évidence par la précipitation d'un syndrome de sevrage à l'aide d'un antagoniste opiacé tel que la naloxone. Ce syndrome se manifeste, chez la souris sous la forme d'un comportement stéréotypé caractérisé par l'apparition de sauts répétitifs dont le nombre est en relation avec la durée et l'intensité du traitement par le morphinique.
Le sevrage des animaux a été réalisé le quatrième jour; trois heures après le dernier traitement, à l'aide de chlorhydrate de naloxone injecté par voie intrapéritonéale à la dose de 100 mg/kg. Immédiatement après cette injection, les animaux ont été placés individuellement dans des cylindres en plexiglass (hauteur = 40 cm, diamètre = 20 cm). Le nombre de sauts consécutifs au sevrage et effectués par chaque animal a été compté durant une période de 10 minutes.
Les résultats qui figurent dans les tableaux représentent les moyennes des valeurs individuelles assorties de l'erreur standard à la moyenne (m ± esm).

[2] = system: souris dépendantes à la morphine; test: Naloxone-precipitated withdrawal syndrome (jumping) in morphine-treated mice, acute oral treatment 24 h before withdrawal; assay type: in vivo; conditions: result in words; 100 mg/kg p.o single dose 24 h before naloxone
Excerpt: as §1
as §2, with “Enfin, le chlorhydrate de naloxone a été solubilisé dans de l'eau distillée et injecté par voie intra-péritonéale.” left out

[3] = Morphine 799 mg/kg s.c (cumulated over 4 days) + compound 4 x 100 mg/kg p.o, naloxone 100 mg/kg ip, normal mice
[4] = compound alone, 4 x 100 mg/kg p.o, no morphine, naloxone 100 mg/kg ip on day 4, normal mice

CC#C[C@]1(O)CC[C@H]2[C@@H]3CCC4=CC(=O)CCC4=C3[C@@H](c3ccc(N(C)C)cc3)C[C@@]21C [AG1, 17β-hydroxy 11β-(4-diméthylaminophényl) 17α-(prop-1-ynyl) estra 4,9-dièn-3-one]
Nombre de sauts/10 minutes (m ± esm) [1, 3]: 68 ± 12 sauts/10 minutes
Nombre de sauts/10 minutes (m ± esm) [1, 4]: 0 sauts/10 minutes

CC#CC1(O)CCC2C3CCC4=CC(=O)CCC4(Cc4ccc(C)cc4)C3=CCC21C (stereo not drawn) [AG2, 17β-hydroxy 10β-[(4-méthylphényl)méthyl] 17α-(prop-1-ynyl) estra 4,9-dièn-3-one]
Nombre de sauts/10 minutes (m ± esm) [1, 3]: 79 ± 9 sauts/10 minutes
Nombre de sauts/10 minutes (m ± esm) [1, 4]: 0 sauts/10 minutes
effet sur le syndrome de sevrage morphinique [2]: inactive

C=C1C[C@@]2(CC[C@H]3[C@@H]4CCC5=CC(=O)CCC5=C4[C@@H](c4ccc(N(C)C)cc4)C[C@@]32C)OC1=O [AG3]
Nombre de sauts/10 minutes (m ± esm) [1, 3]: 66 ± 7 sauts/10 minutes
Nombre de sauts/10 minutes (m ± esm) [1, 4]: 3 ± 2 sauts/10 minutes

CC#CC1(O)CCC2C3CCC4=CC(=O)CCC4(Cc4ccccc4)C3=CCC21C (stereo not drawn) [AG4, 10β-benzyl 17β-hydroxy 17α-(prop-1-ynyl) estra 4,9(11)-dièn-3-one]
Nombre de sauts/10 minutes (m ± esm) [1, 3]: 72 ± 7 sauts/10 minutes
Nombre de sauts/10 minutes (m ± esm) [1, 4]: 1 ± 1 sauts/10 minutes

CN(C)c1ccc([C@H]2C[C@]3(C)[C@@H](CC[C@]3(O)CCCO)[C@@H]3CCC4=CC(=O)CCC4=C32)cc1 [AG5, 11β-[4-(diméthylamino)phényl] 17α-hydroxy 17β-(3-hydroxypropyl) 13α-méthyl gona-4,9-dièn-3-one]
Nombre de sauts/10 minutes (m ± esm) [1, 3]: 68 ± 12 sauts/10 minutes
Nombre de sauts/10 minutes (m ± esm) [1, 4]: 1 ± 1 sauts/10 minutes

CSc1ccc([C@H]2C[C@@]3(C)[C@@H](CC[C@@]34C=CCO4)[C@@H]3CCC4=CC(=O)CCC4=C32)cc1 [AP1, 17R 11β-[4-(méthylthio)phényl] spiro (estra-4,9-dièn-17,2'(5'H)furan) 3-one, reference compound]
effet sur le syndrome de sevrage morphinique [2]: n'a pas modifié de façon significative

CN1CC[C@]23c4c5ccc(O)c4O[C@H]2[C@@H](O)C=C[C@H]3[C@H]1C5 [Morphine, morphine, reference compound]
Nombre de sauts/10 minutes (m ± esm) ([1]; in vivo): 115 ± 21 sauts/10 minutes and 97 ± 13 sauts/10 minutes and 117 ± 14 sauts/10 minutes and 103 ± 10 sauts/10 minutes
